Where “and” joins values, the source holds several entries; their conditions need not be identical. Identical values can stand only once.
Experiments:
Assay in all cases: biochemical
Type in all cases: binding
[1] = biological target: SfurOBP1 (Sogatella furcifera, UniProt V5T8N5); details: OBP1, three replicate columns
Protocol: (§1) Thirty-six rice odorants ([He et al., 2014]; [Wang et al., 2017]) and 1-N-phenyl-naphthylamine (1-NPN) were purchased from Sigma-Aldrich (St Louis, MO, USA). These odorants and 1-NPN were dissolved in high-performance liquid chromatography (HPLC) purify grade methanol for 1.0 mM as work solution.
(§2) Fluorescence competitive binding assays were performed on Tecan Spark 10M (Tecan Group Ltd., Männedorf, Switzerland) with the F96 Black ELIAS Plate (Sangon) ([Khuhro et al., 2017]; [Liu et al., 2017]). The solutions were excited at 337 nm and emission spectra were recorded between 390 and 490 nm. First, to test the binding constants of 1-NPN to the SfurOBPs, a 2.0 µM solution of protein in 50 mM Tris-HCl (pH = 7.4) was titrated with 1 mM 1-NPN to achieve virous concentrations. Next, the competitive binding of each odorant was measured using the 1-NPN as fluorescent reporter and odorant as competitor. The concentrations of protein and 1-NPN were both 2.0 µM, the odorant added after protein and 1-NPN added into the well of ELIAS Plate for 2 min. The final concentrations of each competitor were 2, 4, 6, 8, 10, 12, 14, 16, 18 and 20 µM. After 2 min of odorant added, the fluorescence intensity was measured and recorded. The volume of mixed solution in each well was maintained at 250 µL. Each interaction was performed in triplicates.
(§3) GraphPad Prism 7.0 software (GraphPad Software, Inc., La Jolla, CA, USA) was used to calculated and generated the binding constants (K1−NPN) of 1-NPN to SfurOBPs and relative Scatchard plots ([Ban et al., 2003]; [Li et al., 2016]). Dissociation constant (Ki) of each odorant to SfurOBP was computed from the corresponding IC50 value (the half maximal inhibitory concentration), using the following equation: Ki=[IC50]/(1 + [1-NPN]/K1−NPN), where [1-NPN] is the free concentration of 1-NPN and K1−NPN is the dissociation constant of the complex protein/1-NPN.

[2] = biological target: SfurOBP11 (Sogatella furcifera, UniProt V5T6E3)
Protocol: as §1, §2, §3

[3] = biological target: SfurOBP2 (Sogatella furcifera, UniProt V5T759)
Protocol: as §1, §2, §3

[4] = biological target: SfurOBP3 (Sogatella furcifera, UniProt V5T818); details: OBP3, three replicate columns
Protocol: as §1, §2, §3

SfurOBP11, sequence (V5T6E3 entry or part of it): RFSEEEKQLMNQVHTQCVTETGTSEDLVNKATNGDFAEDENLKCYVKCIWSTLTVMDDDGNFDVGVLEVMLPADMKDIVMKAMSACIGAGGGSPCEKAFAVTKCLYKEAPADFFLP
SfurOBP3, sequence (V5T818 entry or part of it): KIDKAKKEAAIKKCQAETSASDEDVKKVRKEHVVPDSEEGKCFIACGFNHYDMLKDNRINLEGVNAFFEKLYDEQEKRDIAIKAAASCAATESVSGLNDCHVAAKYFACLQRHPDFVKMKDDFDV
SfurOBP1, sequence (V5T8N5 entry or part of it): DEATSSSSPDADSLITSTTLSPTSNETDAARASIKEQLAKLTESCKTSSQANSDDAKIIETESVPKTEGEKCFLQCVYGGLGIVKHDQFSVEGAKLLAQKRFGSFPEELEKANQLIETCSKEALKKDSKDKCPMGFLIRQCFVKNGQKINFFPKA
SfurOBP2, sequence (V5T759 entry or part of it): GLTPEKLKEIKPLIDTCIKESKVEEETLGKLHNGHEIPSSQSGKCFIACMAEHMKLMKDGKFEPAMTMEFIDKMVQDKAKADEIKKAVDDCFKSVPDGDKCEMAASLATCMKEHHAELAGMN

Cc1cc(C(C)(C)C)c(O)c(C(C)(C)C)c1 [BHT(2,6-di-tert-butyl-4-methylphenol)]
Fluorescence competitive binding assay, fluorescence intensity ([1]; ligand concentration 2 (μM)): 6030 and 6058 and 6096 | Fluorescence competitive binding assay, fluorescence intensity ([1]; ligand concentration 4 (μM)): 6092 and 6318 and 6150 | Fluorescence competitive binding assay, fluorescence intensity ([1]; ligand concentration 6 (μM)): 6520 and 6547 and 6496 | Fluorescence competitive binding assay, fluorescence intensity ([1]; ligand concentration 8 (μM)): 6548 and 6679 and 6600 | Fluorescence competitive binding assay, fluorescence intensity ([1]; ligand concentration 10 (μM)): 6739 and 6709 and 6666 | Fluorescence competitive binding assay, fluorescence intensity ([1]; ligand concentration 12 (μM)): 6775 and 6778 and 6802 | Fluorescence competitive binding assay, fluorescence intensity ([1]; ligand concentration 14 (μM)): 6847 and 6906 and 6978 | Fluorescence competitive binding assay, fluorescence intensity ([1]; ligand concentration 16 (μM)): 6943 and 7135 and 6900 | Fluorescence competitive binding assay, fluorescence intensity ([1]; ligand concentration 18 (μM)): 7439 and 7058 and 7176 | Fluorescence competitive binding assay, fluorescence intensity ([1]; ligand concentration 20 (μM)): 7203 and 7412 and 7729 | Fluorescence intensity, fluorescence competitive binding assay, OBP11 ([2]; ligand concentration 2, replicate 1): 23825 | Fluorescence intensity, fluorescence competitive binding assay, OBP11 ([2]; ligand concentration 2, replicate 2): 22642 | Fluorescence intensity, fluorescence competitive binding assay, OBP11 ([2]; ligand concentration 2, replicate 3): 21527 | Fluorescence intensity, fluorescence competitive binding assay, OBP11 ([2]; ligand concentration 4, replicate 1): 20143 | Fluorescence intensity, fluorescence competitive binding assay, OBP11 ([2]; ligand concentration 4, replicate 2): 21258 | Fluorescence intensity, fluorescence competitive binding assay, OBP11 ([2]; ligand concentration 4, replicate 3): 22100 | Fluorescence intensity, fluorescence competitive binding assay, OBP11 ([2]; ligand concentration 6, replicate 1): 20464 | Fluorescence intensity, fluorescence competitive binding assay, OBP11 ([2]; ligand concentration 6, replicate 2): 20607 | Fluorescence intensity, fluorescence competitive binding assay, OBP11 ([2]; ligand concentration 6, replicate 3): 21862 | Fluorescence intensity, fluorescence competitive binding assay, OBP11 ([2]; ligand concentration 8, replicate 1): 19852 | Fluorescence intensity, fluorescence competitive binding assay, OBP11 ([2]; ligand concentration 8, replicate 2): 19956 | Fluorescence intensity, fluorescence competitive binding assay, OBP11 ([2]; ligand concentration 8, replicate 3): 20060 | Fluorescence intensity, fluorescence competitive binding assay, OBP11 ([2]; ligand concentration 10, replicate 1): 19539 | Fluorescence intensity, fluorescence competitive binding assay, OBP11 ([2]; ligand concentration 10, replicate 2): 18542 | Fluorescence intensity, fluorescence competitive binding assay, OBP11 ([2]; ligand concentration 10, replicate 3): 20536 | Fluorescence intensity, fluorescence competitive binding assay, OBP11 ([2]; ligand concentration 12, replicate 1): 18948 | Fluorescence intensity, fluorescence competitive binding assay, OBP11 ([2]; ligand concentration 12, replicate 2): 19227 | Fluorescence intensity, fluorescence competitive binding assay, OBP11 ([2]; ligand concentration 12, replicate 3): 18669 | Fluorescence intensity, fluorescence competitive binding assay, OBP11 ([2]; ligand concentration 14, replicate 1): 16147 | Fluorescence intensity, fluorescence competitive binding assay, OBP11 ([2]; ligand concentration 14, replicate 2): 16112 | Fluorescence intensity, fluorescence competitive binding assay, OBP11 ([2]; ligand concentration 14, replicate 3): 15881 | Fluorescence intensity, fluorescence competitive binding assay, OBP11 ([2]; ligand concentration 16, replicate 1): 16019 | Fluorescence intensity, fluorescence competitive binding assay, OBP11 ([2]; ligand concentration 16, replicate 2): 15985 | Fluorescence intensity, fluorescence competitive binding assay, OBP11 ([2]; ligand concentration 16, replicate 3): 16022 | Fluorescence intensity, fluorescence competitive binding assay, OBP11 ([2]; ligand concentration 18, replicate 1): 16028 | Fluorescence intensity, fluorescence competitive binding assay, OBP11 ([2]; ligand concentration 18, replicate 2): 15902 | Fluorescence intensity, fluorescence competitive binding assay, OBP11 ([2]; ligand concentration 18, replicate 3): 15995 | Fluorescence intensity, fluorescence competitive binding assay, OBP11 ([2]; ligand concentration 20, replicate 1): 15978 | Fluorescence intensity, fluorescence competitive binding assay, OBP11 ([2]; ligand concentration 20, replicate 2): 15860 | Fluorescence intensity, fluorescence competitive binding assay, OBP11 ([2]; ligand concentration 20, replicate 3): 15984 | Fluorescence competitive binding assay, OBP2 (raw fluorescence reading) ([3]; ligand concentration 2 (unit not given), replicate column 1 of 3): 17266 | Fluorescence competitive binding assay, OBP2 (raw fluorescence reading) ([3]; ligand concentration 2 (unit not given), replicate column 2 of 3): 17491 | Fluorescence competitive binding assay, OBP2 (raw fluorescence reading) ([3]; ligand concentration 2 (unit not given), replicate column 3 of 3): 17183 | Fluorescence competitive binding assay, OBP2 (raw fluorescence reading) ([3]; ligand concentration 4 (unit not given), replicate column 1 of 3): 14970 | Fluorescence competitive binding assay, OBP2 (raw fluorescence reading) ([3]; ligand concentration 4 (unit not given), replicate column 2 of 3): 16711 | Fluorescence competitive binding assay, OBP2 (raw fluorescence reading) ([3]; ligand concentration 4 (unit not given), replicate column 3 of 3): 16317 | Fluorescence competitive binding assay, OBP2 (raw fluorescence reading) ([3]; ligand concentration 6 (unit not given), replicate column 1 of 3): 15662 | Fluorescence competitive binding assay, OBP2 (raw fluorescence reading) ([3]; ligand concentration 6 (unit not given), replicate column 2 of 3): 16983 | Fluorescence competitive binding assay, OBP2 (raw fluorescence reading) ([3]; ligand concentration 6 (unit not given), replicate column 3 of 3): 15070 | Fluorescence competitive binding assay, OBP2 (raw fluorescence reading) ([3]; ligand concentration 8 (unit not given), replicate column 1 of 3): 15947 | Fluorescence competitive binding assay, OBP2 (raw fluorescence reading) ([3]; ligand concentration 8 (unit not given), replicate column 2 of 3): 15853 | Fluorescence competitive binding assay, OBP2 (raw fluorescence reading) ([3]; ligand concentration 8 (unit not given), replicate column 3 of 3): 15572 | Fluorescence competitive binding assay, OBP2 (raw fluorescence reading) ([3]; ligand concentration 10 (unit not given), replicate column 1 of 3): 14398 | Fluorescence competitive binding assay, OBP2 (raw fluorescence reading) ([3]; ligand concentration 10 (unit not given), replicate column 2 of 3): 14630 | Fluorescence competitive binding assay, OBP2 (raw fluorescence reading) ([3]; ligand concentration 10 (unit not given), replicate column 3 of 3): 15652 | Fluorescence competitive binding assay, OBP2 (raw fluorescence reading) ([3]; ligand concentration 12 (unit not given), replicate column 1 of 3): 14856 | Fluorescence competitive binding assay, OBP2 (raw fluorescence reading) ([3]; ligand concentration 12 (unit not given), replicate column 2 of 3): 14795 | Fluorescence competitive binding assay, OBP2 (raw fluorescence reading) ([3]; ligand concentration 12 (unit not given), replicate column 3 of 3): 14083 | Fluorescence competitive binding assay, OBP2 (raw fluorescence reading) ([3]; ligand concentration 14 (unit not given), replicate column 1 of 3): 12632 | Fluorescence competitive binding assay, OBP2 (raw fluorescence reading) ([3]; ligand concentration 14 (unit not given), replicate column 2 of 3): 13317 | Fluorescence competitive binding assay, OBP2 (raw fluorescence reading) ([3]; ligand concentration 14 (unit not given), replicate column 3 of 3): 14001 | Fluorescence competitive binding assay, OBP2 (raw fluorescence reading) ([3]; ligand concentration 16 (unit not given), replicate column 1 of 3): 12208 | Fluorescence competitive binding assay, OBP2 (raw fluorescence reading) ([3]; ligand concentration 16 (unit not given), replicate column 2 of 3): 12493 | Fluorescence competitive binding assay, OBP2 (raw fluorescence reading) ([3]; ligand concentration 16 (unit not given), replicate column 3 of 3): 12411 | Fluorescence competitive binding assay, OBP2 (raw fluorescence reading) ([3]; ligand concentration 18 (unit not given), replicate column 1 of 3): 12799 | Fluorescence competitive binding assay, OBP2 (raw fluorescence reading) ([3]; ligand concentration 18 (unit not given), replicate column 2 of 3): 12350 | Fluorescence competitive binding assay, OBP2 (raw fluorescence reading) ([3]; ligand concentration 18 (unit not given), replicate column 3 of 3): 11202 | Fluorescence competitive binding assay, OBP2 (raw fluorescence reading) ([3]; ligand concentration 20 (unit not given), replicate column 1 of 3): 12923 | Fluorescence competitive binding assay, OBP2 (raw fluorescence reading) ([3]; ligand concentration 20 (unit not given), replicate column 2 of 3): 12557 | Fluorescence competitive binding assay, OBP2 (raw fluorescence reading) ([3]; ligand concentration 20 (unit not given), replicate column 3 of 3): 10378 | Fluorescence competitive binding assay, fluorescence intensity ([4]; ligand concentration 2): 62922 and 62019 and 61313 | Fluorescence competitive binding assay, fluorescence intensity ([4]; ligand concentration 4): 80496 and 109930 and 48944 | Fluorescence competitive binding assay, fluorescence intensity ([4]; ligand concentration 6): 58503 and 58107 and 50633 | Fluorescence competitive binding assay, fluorescence intensity ([4]; ligand concentration 8): 41822 and 72799 and 53759 | Fluorescence competitive binding assay, fluorescence intensity ([4]; ligand concentration 10): 69788 and 72654 and 85946 | Fluorescence competitive binding assay, fluorescence intensity ([4]; ligand concentration 12): 60000 and 90914 and 74114 | Fluorescence competitive binding assay, fluorescence intensity ([4]; ligand concentration 14): 74285 and 75475 and 71382 | Fluorescence competitive binding assay, fluorescence intensity ([4]; ligand concentration 16): 52587 and 87313 and 65294 | Fluorescence competitive binding assay, fluorescence intensity ([4]; ligand concentration 18): 52719 and 70169 and 103842 | Fluorescence competitive binding assay, fluorescence intensity ([4]; ligand concentration 20): 122349 and 93664 and 80933

From publication PMC6409085, “Three odorant-binding proteins are involved in the behavioral response of Sogatella furcifera to rice plant volatiles” (PeerJ, 2019)
